In US8703165B2, “Spiro fused 1-amino-piperdine pyrrolidine dione derivatives with pesticidal activity” (Syngenta Crop Protection, Inc., priority 2009, dated 2014) one finds melting point data, which are given here for one compound.

Regarding `Cc1cc(C)c(C2C(=O)OC3(CCN(N(C)C)CC3)C2=O)c(C)c1` (stereo not shown) [A11, 8-Dimethylamino-3-(2,4,6-trimethyl-phenyl)-1-oxa-8-azaspiro[4.5]decane-2,4-dione], the melting point – broadly, the temperature of the solid-liquid transition – was more than 200 °C.
